26 molecules from PubChem BioAssay (NCI) can be followed below.

The structures appear in SMILES notation.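 Five compound concentrations were applied to cells in 96-well plates for 48 hours; endpoints were derived by simple linear interpolation of the resulting dose-response curve. GI50 is the concentration that inhibits growth by half. Definition used: TGI = concentration required for complete inhibition of growth.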

Test systems include A498 renal; HCC-2998 colon; IGROV1 ovarian; KM12 colon; MDA-MB-231 breast; OVCAR-3 ovarian; SK-MEL-5 melanoma; T-47D breast.
Common to all, as to experiment: NCI tumour cell line growth inhibition, 48 h

Turning to `CC(=O)N(C(C)=O)n1c(Cc2ccc(C)cc2)nn(C(C)=O)c1=O`, the TGI in the test with A498 renal, in the test with HCC-2998 colon, in the test on IGROV1 ovarian, with KM12 colon, in the test on MDA-MB-231 breast and with OVCAR-3 ovarian was greater than 100 µM each time. Further, the TGI with SK-MEL-5 melanoma and with T-47D breast was greater than 100 µM in each case.
Regarding `Cc1c2ccccc2c(C)n2c1nc1ccccc12`, the TGI is 25.5 µM in the test with A498 renal; 22.7 µM in the test on HCC-2998 colon; 43.8 µM with IGROV1 ovarian; 23.3 µM with KM12 colon; 21.8 µM in the test with OVCAR-3 ovarian; 16 µM with SK-MEL-5 melanoma. For the same molecule, the TGI with T-47D breast stood at 89.6 µM.
With `O=C1CS[C@@](CC(c2ccc(Cl)cc2)c2ccc(Cl)cc2)(c2ccc(Cl)cc2)N1`, the TGI in the test with A498 renal was 45.8 µM; with HCC-2998 colon, greater than 100 µM; in the test on IGROV1 ovarian, greater than 100 µM; with KM12 colon it was greater than 100 µM; in the test on OVCAR-3 ovarian, 38 µM; with SK-MEL-5 melanoma, 34.6 µM. This molecule returned a TGI in the test with T-47D breast greater than 100 µM.
As for `O=C(O)CNC(=O)c1ccc2cc(C(=O)N3CC(CCl)c4ccc([N+](=O)[O-])cc43)[nH]c2c1` (stereo not drawn), the TGI with IGROV1 ovarian, in the test with KM12 colon, in the test with MDA-MB-231 breast, in the test with OVCAR-3 ovarian, with SK-MEL-5 melanoma and in the test on T-47D breast was greater than 100 µM in each case.
As to `CN[C@@H](C)[C@@H](O)c1ccccc1`, the TGI is greater than 100 µM in the test with HCC-2998 colon; greater than 100 µM with IGROV1 ovarian; greater than 100 µM with KM12 colon; greater than 10 µM in the test with MDA-MB-231 breast; greater than 10 µM with OVCAR-3 ovarian; greater than 100 µM with SK-MEL-5 melanoma. For the same molecule, in the test on T-47D breast, the TGI is greater than 100 µM.
Turning to `NC(=Nc1ccccc1)c1ccccc1N`, the TGI in the test with A498 renal, in the test with HCC-2998 colon, in the test on IGROV1 ovarian, in the test with KM12 colon, in the test on MDA-MB-231 breast and in the test on OVCAR-3 ovarian was greater than 100 µM each time. For the same molecule, the TGI with SK-MEL-5 melanoma was greater than 100 µM.
For the molecule `Clc1ccc(C2CC(c3cccc(Nc4ccncc4)c3)=NN2c2cc(Cl)cc(Cl)c2)cc1` (stereo not drawn), the GI50 with HCC-2998 colon is 1.56 µM; in the test with IGROV1 ovarian it was 1.71 µM; in the test on KM12 colon, 1.79 µM; with OVCAR-3 ovarian, 1.84 µM; in the test with SK-MEL-5 melanoma, 1.83 µM. Also, the TGI with HCC-2998 colon was 3.04 µM; with IGROV1 ovarian it was 3.32 µM; in the test on KM12 colon, 3.38 µM; in the test with OVCAR-3 ovarian it was 3.41 µM; in the test with SK-MEL-5 melanoma it was 3.38 µM.
As for `CC12ON(P(=O)(c3ccccc3)c3ccccc3)C(C)(c3ccccc31)c1ccccc12`, the TGI in the test with HCC-2998 colon, in the test with IGROV1 ovarian, in the test with KM12 colon, with MDA-MB-231 breast, in the test with OVCAR-3 ovarian and in the test on SK-MEL-5 melanoma was greater than 100 µM in each case. Besides, the TGI with T-47D breast is greater than 100 µM.
Turning to `COP(=O)(O)C(N)Cc1c[nH]c2ccccc12` (stereo not drawn), the TGI in the test on A498 renal, in the test with HCC-2998 colon, with IGROV1 ovarian, in the test on MDA-MB-231 breast, with OVCAR-3 ovarian and in the test with SK-MEL-5 melanoma was greater than 100 µM in each case. In the test on T-47D breast, the TGI was greater than 100 µM.
Consider `CN(Cc1cnc2nc(N)nc(N)c2n1)c1ccc(C(=O)NC(CCC(=O)NC(CC(P(=O)(O)O)P(=O)(O)O)C(=O)O)C(=O)O)cc1` (stereo not drawn), for which the TGI with IGROV1 ovarian, in the test on MDA-MB-231 breast, with OVCAR-3 ovarian, in the test on SK-MEL-5 melanoma and in the test with T-47D breast was greater than 100 µM each time.
As to `CCC(=O)/C(=C\I)c1ccccc1`, the TGI with A498 renal amounted to 32.1 µM; in the test on IGROV1 ovarian, 4.28 µM; with KM12 colon, 19.9 µM; in the test with MDA-MB-231 breast, 3.29 µM; with OVCAR-3 ovarian, 3.12 µM.
With `O=C(N/N=C(/COc1ccccc1Cl)N=Cc1ccncc1)c1ccncc1`, the TGI in the test with A498 renal, in the test with HCC-2998 colon, in the test on IGROV1 ovarian, in the test on KM12 colon, in the test on MDA-MB-231 breast and in the test on OVCAR-3 ovarian was greater than 100 µM in each case. Besides, the TGI with T-47D breast is greater than 100 µM.
In the case of `CCOC(=O)CCC(NC(=O)Cc1ccc(Oc2nc3ccccc3nc2-c2ccccc2)cc1)C(=O)OCC` (stereo not drawn), the TGI in the test on A498 renal, in the test with HCC-2998 colon, in the test on KM12 colon, in the test on MDA-MB-231 breast, in the test with OVCAR-3 ovarian and in the test with SK-MEL-5 melanoma was greater than 100 µM each time. The molecule further had a TGI in the test on T-47D breast of 99.7 µM.
`COC([C@@H](OC(=O)c1ccccc1)[C@H](OC(=O)c1ccccc1)C(O)COC(=O)c1ccccc1)n1cc(C)c(=O)[nH]c1=O` (stereo partly drawn): the TGI was greater than 100 µM in the test with IGROV1 ovarian; greater than 100 µM in the test on MDA-MB-231 breast; 97.1 µM in the test with OVCAR-3 ovarian; 24 µM in the test with SK-MEL-5 melanoma; greater than 100 µM in the test on T-47D breast.
With `Nc1nc(=O)n(C2OC(CO)C(O)C2O)c2ncc(-c3ccc(-c4ccccc4)cc3)nc12` (stereo not drawn), the TGI is greater than 100 µM with A498 renal; greater than 100 µM in the test on HCC-2998 colon; greater than 100 µM with IGROV1 ovarian; greater than 100 µM in the test on KM12 colon; 57.7 µM with MDA-MB-231 breast; greater than 100 µM in the test with SK-MEL-5 melanoma. Also, the TGI with T-47D breast is greater than 100 µM.
For the molecule `COc1cc(OC2OC(COC(=O)c3cc(O)c(O)c(O)c3)C(O)C(O)C2O)ccc1O` (stereo not drawn), the TGI in the test on A498 renal, in the test on HCC-2998 colon, in the test with IGROV1 ovarian, in the test on KM12 colon, in the test on MDA-MB-231 breast and in the test with OVCAR-3 ovarian was greater than 100 µM throughout. This molecule also gave a TGI in the test on SK-MEL-5 melanoma greater than 100 µM.
As for `N=c1oc2ccccc2cc1-c1nc2ccccc2c(=O)[nH]1`, the TGI with HCC-2998 colon, in the test with IGROV1 ovarian, in the test on KM12 colon, in the test with MDA-MB-231 breast, in the test on SK-MEL-5 melanoma and in the test on T-47D breast was greater than 100 µM throughout.
For the molecule `COc1c(C)c(C/C=C(\C)CC/C=C(\C)CC/C=C(\C)CCC=C(C)C)c(OC)c2ccccc12`, the TGI in the test with IGROV1 ovarian, in the test on KM12 colon, in the test on MDA-MB-231 breast, in the test on OVCAR-3 ovarian and in the test with SK-MEL-5 melanoma was greater than 100 µM each time.
On to `O=C1/C(=C/c2ccccc2)NC(=S)N1CN1CCCCC1`, for which the TGI in the test with A498 renal, with IGROV1 ovarian, in the test on KM12 colon, with MDA-MB-231 breast, in the test with OVCAR-3 ovarian and in the test with SK-MEL-5 melanoma was greater than 100 µM throughout.
As for `CCOC(=O)c1[nH]c2cccc3c2c1CC[C@H](NC(=O)C(F)(F)F)C3=O`, the TGI in the test on A498 renal, in the test with HCC-2998 colon, in the test with IGROV1 ovarian, in the test on KM12 colon, in the test on MDA-MB-231 breast and with OVCAR-3 ovarian was greater than 100 µM throughout. Moreover, the TGI with SK-MEL-5 melanoma is greater than 100 µM.
Regarding `COc1ccc([C@]23CCN4COC[C@@H]([C@H]42)C2(CC3)OCC(C)(C)CO2)cc1OC`, the TGI in the test with A498 renal, in the test with HCC-2998 colon, in the test with IGROV1 ovarian, in the test on KM12 colon, with MDA-MB-231 breast and with SK-MEL-5 melanoma was greater than 100 µM throughout. This molecule also yielded a TGI in the test with T-47D breast greater than 100 µM.
On to `O=C1CS(=O)(=O)C(c2cccc(Oc3ccccc3)c2)N1c1ccccc1` (stereo not drawn), for which the TGI in the test with A498 renal was 41.8 µM; in the test on HCC-2998 colon it was 35 µM; with KM12 colon, greater than 100 µM; with MDA-MB-231 breast, 62.6 µM; with OVCAR-3 ovarian, 55.1 µM; in the test on SK-MEL-5 melanoma it was 29.3 µM. In addition, in the test with T-47D breast, the TGI is greater than 100 µM.
As to `CCOC(=O)C(=O)CC(=O)C1=C(c2ccccc2OC)CC(c2cccs2)=CC1=O`, the TGI with A498 renal, in the test with IGROV1 ovarian, with KM12 colon, in the test with MDA-MB-231 breast, in the test with OVCAR-3 ovarian and with SK-MEL-5 melanoma was greater than 100 µM in each case. The TGI in the test on T-47D breast was greater than 100 µM.
For `COC1=C2C=[N+](C)C3C(=C2C=CC1OC)Cc1cc2c(cc13)OCO2` (stereo not drawn), the TGI in the test with A498 renal was greater than 100 µM; in the test with KM12 colon it was 10.4 µM; in the test with MDA-MB-231 breast, 27.8 µM; in the test on OVCAR-3 ovarian, 13.7 µM; in the test with SK-MEL-5 melanoma, 23.2 µM; in the test with T-47D breast it was 18.8 µM.
As for `CC(=O)Oc1cc(OC(C)=O)c2c(C)cc(=O)oc2c1`, the TGI in the test on A498 renal, in the test with IGROV1 ovarian, in the test with KM12 colon, in the test with MDA-MB-231 breast, with OVCAR-3 ovarian and in the test with SK-MEL-5 melanoma was greater than 100 µM each time.
In the case of `COC(=O)c1ccccc1C1=C([N+](=O)[O-])C(c2ccccc2)C(C#N)=C(N)O1` (stereo not drawn), the TGI was greater than 100 µM with HCC-2998 colon; greater than 100 µM in the test with IGROV1 ovarian; greater than 100 µM in the test with KM12 colon; greater than 100 µM in the test on MDA-MB-231 breast; 88.9 µM with OVCAR-3 ovarian; greater than 100 µM in the test on SK-MEL-5 melanoma. The molecule further returned a TGI in the test with T-47D breast greater than 100 µM.
